Measurements from ChEMBL document CHEMBL1201862, “PubChem BioAssay data set” (2004).
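These data come from cells grown in 96-well plates and exposed to compound for 48 hours at five concentrations. The concentration for 50% growth inhibition is given as GI50.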 Calls of active or inactive are those of the source. No stated cut-off is given here; in the data, active = GI50 up to about 1.1 µM and inactive = higher.

Tests used:
Assay in all cases: growth of human tumour cells (NCI), 48 h
[1] = system: A498
[2] = system: A549
[3] = system: CAKI-1
[4] = system: CCRF-CEM
[5] = system: COLO 205
[6] = system: DLD-1
[7] = system: DMS-114
[8] = system: DMS-273
[9] = system: EKVX
[10] = system: HCC 2998
[11] = system: HCT-116
[12] = system: HCT-15
[13] = system: HL-60
[14] = system: HOP-18
[15] = system: HOP-62
[16] = system: HOP-92
[17] = system: HT-29
[18] = system: IGROV-1
[19] = system: K562
[20] = system: KM-20L2
[21] = system: KM12
[22] = system: LOX IMVI
[23] = system: M19-MEL
[24] = system: MCF7
[25] = system: MOLT-4
[26] = system: Malme-3M
[27] = system: NCI-H226
[28] = system: NCI-H23
[29] = system: NCI-H460
[30] = system: NCI-H522
[31] = system: NCI/ADR-RES
[32] = system: OVCAR-3
[33] = system: OVCAR-4
[34] = system: OVCAR-5
[35] = system: OVCAR-8
[36] = system: RPMI-8226
[37] = system: SF-268
[38] = system: SF-295
[39] = system: SF-539
[40] = system: SK-MEL-28
[41] = system: SK-MEL-2
[42] = system: SK-MEL-5
[43] = system: SK-OV-3
[44] = system: SN12C
[45] = system: SNB-19
[46] = system: SNB-75
[47] = system: SNB-78
[48] = system: SW-620
[49] = system: U-251
[50] = system: UACC-257
[51] = system: UACC-62
[52] = system: UO-31
[53] = system: XF498

Measured: GI50

CCCCC(NC(=O)CC)C(=O)O (stereo not drawn)
inactive: [1] > 100 µM | [2] > 100 µM | [3] > 100 µM | [4] > 100 µM | [5] > 100 µM | [6] > 100 µM | [7] > 100 µM | [8] > 100 µM | [9] > 100 µM | [10] > 31.6 µM | [11] > 100 µM | [13] > 100 µM | [14] > 100 µM | [15] > 100 µM | [16] > 100 µM | [17] > 100 µM | [18] > 100 µM | [19] > 100 µM | [20] > 100 µM | [21] > 100 µM | [22] > 100 µM | [23] > 100 µM | [24] > 100 µM | [25] > 100 µM | [26] > 100 µM | [27] > 100 µM | [28] > 100 µM | [29] > 100 µM | [30] > 100 µM | [31] > 100 µM | [32] > 100 µM | [33] > 100 µM | [34] > 100 µM | [35] > 100 µM | [36] > 100 µM | [37] > 100 µM | [38] > 100 µM | [39] > 100 µM | [40] > 100 µM | [41] > 100 µM | [42] > 100 µM | [43] > 100 µM | [44] > 100 µM | [45] > 100 µM | [46] > 100 µM | [47] > 100 µM | [48] > 100 µM | [49] > 100 µM | [50] > 100 µM | [51] > 100 µM | [52] > 100 µM | [53] > 100 µM
> 100 µM: [12]
